Here are results for 1 compound from patent US20240238299A1, “USE OF PYRROLOPYRIMIDINE COMPOUND” (GUANGZHOU JOYO PHARMATECH CO., LTD, priority 2021, published 2024).

Assay [1] deals with BV-2 cells. Description: CTG cell proliferation assay, LPS/IFN-γ-activated BV-2 cells. It is filed as cell-based, Mouse. How it is done:
(§1) Step 1: BV-2 cells in the exponential growth phase were collected, and viable cells were counted using a Vi-Cell XR cell counter. The cell suspension was adjusted to an appropriate concentration with the culture medium. 160 μL of cell suspension was added to each well of a 96-well cell culture plate, resulting in a final cell concentration of 12,000 cells per well. The culture plate was incubated for 24 hours in a 37° C., 5% CO2 incubator.
(§2) Step 2: A 10 mM DMSO compound stock solution was diluted at a ratio of 1:4 using DMSO to prepare a series of 1000× test compound solutions. These 1000× test compound solutions were further diluted at a ratio of 1:100 using cell culture medium to prepare a series of 10× test compound solutions. Finally, the 96-well plate that had been plated with cells the day before was taken out. According to the experimental well plate loading design, 20 μL of the corresponding 10× solution was added to each well, with three duplicate wells for each drug concentration. The final concentrations of the test compounds used in the experiment (i.e., 1× solutions) have a range of 10, 2.5, 0.625, 0.156, 0.0391, 0.0098, and 0.0024 μM. The final DMSO concentration in each well was 0.1%.
(§3) After the compound was added, the 96-well plate was incubated for half an hour in the 37° C., 5% CO2 incubator.
(§4) After the pre-incubation was completed, 20 μL of culture medium containing 100 ng/mL LPS and 100 ng/mL IFN-γ (final concentrations of 10 ng/mL LPS and 10 ng/mL IFN-7) was added to each well to induce the activation of BV-2 cells. The culture plate was then incubated for 24 hours in the 37° C., 5% CO2 incubator.
(§5) Step 3: After 24 hours of treatment with the compound, the culture plate was centrifuged at 1200 rpm for 5 minutes. The supernatant was pipetted into another plate, which was sealed with tinfoil and stored at −20° C. for future ELISA and Griess reagent system assays. The cell culture plate from which the supernatant had been removed was immediately used for cell proliferation assays using the CellTiter-Glo (CTG) method.
Step 4: In the cell culture plate from which the supernatant had been removed, 100 μL of PBS was added to each well. According to the instructions of the CellTiter-Glo (CTG) kit, 50 μL of pre-melted and room-temperature balanced CTG solution was added to each well. The plate was then mixed for 2 minutes using a microplate shaker. After letting it stand at room temperature for 10 minutes, the fluorescence signal value was measured using an Envision 2104 plate reader.
Step 1: Using the CTG fluorescence signal values, the percentage of surviving cells (surviving cells %) at each test concentration relative to the blank (DMSO) group was calculated. The formula was: surviving cells %=fluorescence value of the test concentration group/fluorescence value of the blank group.
Step 2: the percentage of surviving cells was plotted against the logarithm of the compound concentration. Nonlinear regression was used to fit the curve, and the formula “log(inhibitor) vs. response—Variable slope” in the software GraphPad Prism 5 was employed to calculate the IC50 value.
Step 3: The formula for calculating the inhibition rate was: inh. (%)={fluorescence value of the blank group−fluorescence value of the test concentration group}/fluorescence value of the blank (DMSO) group.

Assay [2] concerns mouse CCL5 secretion by BV-2 cell line. Description: CCL5 secretion by LPS/IFN-γ-activated BV-2 cells (ELISA). It is filed as cell-based. The protocol:
as §1, §2, §3
After the pre-incubation was completed, 20 μL of culture medium containing 100 ng/mL LPS and 100 ng/mL IFN-γ (final concentrations of 10 ng/mL LPS and 10 ng/mL IFN-7) was added to each well to induce the activation of BV-2 cells. The culture plate was then incubated for 24 hours in the 37° C., 5% CO2 incubator. […]
(§6) Step 5 (NO and CCL5 detection): The CCL5 levels in the supernatant were detected using an ELISA kit (Mouse CCL5/RANTES DuoSet ELISA; R&D; DY478-05), following the instructions provided with the kit. The nitric oxide (NO) levels in the supernatant were detected using the Griess Reagent System (Promega; G2930), following the instructions provided with the kit.
(§7) Step 1: Firstly, the optical density values obtained from ELISA and Griess tests were used to plot a standard curve and calculate the absolute concentrations of each sample. The absolute concentration was then calibrated using the CTG fluorescence value corresponding to each sample to obtain the calibrated concentration. The formula for calculating the calibrated concentration was: calibrated concentration=absolute concentration/CTG fluorescence value of the same sample.
Step 2: Based on the calibrated concentration of each sample, the relative percentage of CCL5 or NO secretion (i.e., CCL5 production (%) or NO production (%)) at each test concentration relative to the blank (DMSO) group was calculated. […]
(In an ELISA, binding on a coated surface is turned into a signal by an enzyme label.)

For assay [3], the system named is NO secretion by BV-2 cell line. Briefly: NO secretion by LPS/IFN-γ-activated BV-2 cells (Griess Reagent System). It counts as cell-based, Mouse. Conditions: for IC50: Mus musculus, BV-2, 24 h co-incubation. The protocol: as §1, §2, §3, §4, §5, §6, §7
Step 2: Based on the calibrated concentration of each sample, the relative percentage of CCL5 or NO secretion (i.e., CCL5 production (%) or NO production (%)) at each test concentration relative to the blank (DMSO) group was calculated. The formula for calculating the relative percentage was: relative percentage %=(calibrated concentration of the test concentration group)/(calibrated concentration of the blank group).
Step 3: Finally, the relative percentage of CCL5 secretion or the relative percentage of NO secretion was plotted against the logarithm of the compound concentration. […]
(Nitrite, measured by Griess reagent, commonly stands in for NO production.)

[4] abbreviates: 24 h co-incubation, up to 10 μM.

Read-outs that look alike come from different tables or passages of the source.

By IC50 is commonly meant the point on the concentration scale where inhibition reaches its midpoint. As for `CCc1cc(/C(C)=N/OCc2ccc(C3CCCCC3)c(C(F)(F)F)c2)ccc1CN1CC(C(=O)O)C1` [Siponimod, reference compound], the “inhibitory effect on cell proliferation” value in assay [1] (24 h co-incubation with BV-2, highest test concentration 10 μM) is listed as “no significant inhibitory effect on cell proliferation”. In assay [1] (Mus musculus, BV-2, 24 h co-incubation, LPS/IFN-γ, highest concentration 10 μM, read-out: Maximum inhibition rate on BV-2 cell proliferation), the inhibition at up to 10 µM is 4.44%. In addition, in assay [2] (setting [4]), the “Maximum inhibition rate on CCL5 secretion by BV-2” value is 35.16%. Also, the IC50 in assay [2] (Mus musculus, BV-2, 24 h co-incubation) is more than 10 µM; in assay [3] (read-out: IC50 on NO secretion by BV-2), more than 10 µM; in assay [3] (read-out: IC50 on NO secretion by BV-2 (text of b102)), more than 10 µM. For the same compound, the “Maximum inhibition rate on NO secretion by BV-2” value in assay [3] (setting [4]) is reported as 7.71%.
